Reference: patent US20100190856A1, “Novel Polyhydroxylated Compounds as Fatty Acid Synthase (FASN) Inhibitors” (UNIVERSIDAD COMPLUTENSE DE MADRID, priority 2007, published 2010)
Entries after “also recorded” stand apart in the source; their conditions may differ. Like-named read-outs stand apart in the source and are kept apart here.

Assays:
[1] = tested on: PARP; experiment: Immunoblot analysis of PARP cleavage in SK-Br3 cells; format: cell-based, human; conditions: for 89 KDa product of PARP cleavage: SK-Br3 cells, 30 μM, 12, 24 and 48 h
Experimental: (§1) Following the treatment of SK-Br3 cells with the studied compound at the desired concentrations and time intervals, cells were harvested by treatment with trypsin-EDTA solution, washed twice with PBS and stored at −80° C. The cells were lysed in lysis buffer (1 mM EDTA, 150 mM NaCl, 100 μg/mL PMSF and 50 mM Tris-HCl, pH 7.5) and kept at 4° C. while they were routinely mixed every 2 min on the vortex during 30 min. A sample was taken for measurement of protein content by a BioRad assay (Bio-Rad Laboratories). Equal amounts of protein were heated in sodium dodecyl sulphate (SDS) sample buffer (Laemmli) for 5 min at 95° C., separated on a 3-8% SDS-polyacrylamide gel (FASN, p185^HER2/neu, phospho-p185^HER2/neu) or 4-12% SDS-polyacrylamide gel (AKT, phospho-AKT, ERK1/2, phospho-ERK1/2 and PARP) and transferred onto nitrocellulose membranes. The membranes were incubated for 1 h at room temperature in blocking buffer (2.5% powdered-skim milk in TBS-T [10 mM Tris-HCl pH 8.0, 150 mM NaCl and 0.05% Tween-20]) to prevent non-specific antibody binding. The primary antibody used was a monoclonal antibody. Antibody dilution was prepared in blocking solution and blots were incubated with monoclonal antibody overnight at 4° C. […] Blots were re-probed with an antibody for β-actin to control for protein loading and transfer.
Western blot analysis for poly-ADP-ribose polymerase (PARP) was performed on SK-Br3 cells exposed for 12, 24 and 48 h to compound f (30 μM) and compound i (30 μM). Apoptosis and induction of caspase activity was confirmed by Western blotting analysis showing cleavage of PARP.

[2] = tested on: HER2; experiment: Immunoblot analysis of p185HER2/neu and phospho-p185HER2/neu in SK-Br3 cells; format: cell-based, human; conditions: for level of total HER2 / expression levels of p-HER2 proteins / levels of p-HER2 proteins: SK-Br3, 30 μM; for level of total HER2: Western blotting or HER2-specific ELISA; for expression levels of p-HER2 proteins: within 2 h after exposure; for levels of p-HER2 proteins: within 6 h after treatment; for active form of oncoprotein HER2: within 2 h after treatment
Experimental: as §1
We have examined the time-dependent effects of compound f (30 μM) and compound i (30 μM) on HER2, AKT and ERK1/2 activation.

[3] = target: T1, FASN (Homo sapiens, UniProt P49327); experiment: Fatty acid synthase activity assay in SK-Br3 cells (NADPH oxidation, particle-free supernatants); format: cell-based; parameters: FASN activity, % of control cells / FASN activity reduced to / reduction of FASN activity: concentration or dose not given beside the values; conditions: for inhibition of FASN activity (in words): SK-Br3 cells treated 6, 12 and 24 hours; for FASN activity, % of control cells: SK-Br3 cells, 24 h exposure
T1 construct: endogenous in cells; host or cells: SK-Br3 breast cancer cells
T1 sequence (P49327 whole entry): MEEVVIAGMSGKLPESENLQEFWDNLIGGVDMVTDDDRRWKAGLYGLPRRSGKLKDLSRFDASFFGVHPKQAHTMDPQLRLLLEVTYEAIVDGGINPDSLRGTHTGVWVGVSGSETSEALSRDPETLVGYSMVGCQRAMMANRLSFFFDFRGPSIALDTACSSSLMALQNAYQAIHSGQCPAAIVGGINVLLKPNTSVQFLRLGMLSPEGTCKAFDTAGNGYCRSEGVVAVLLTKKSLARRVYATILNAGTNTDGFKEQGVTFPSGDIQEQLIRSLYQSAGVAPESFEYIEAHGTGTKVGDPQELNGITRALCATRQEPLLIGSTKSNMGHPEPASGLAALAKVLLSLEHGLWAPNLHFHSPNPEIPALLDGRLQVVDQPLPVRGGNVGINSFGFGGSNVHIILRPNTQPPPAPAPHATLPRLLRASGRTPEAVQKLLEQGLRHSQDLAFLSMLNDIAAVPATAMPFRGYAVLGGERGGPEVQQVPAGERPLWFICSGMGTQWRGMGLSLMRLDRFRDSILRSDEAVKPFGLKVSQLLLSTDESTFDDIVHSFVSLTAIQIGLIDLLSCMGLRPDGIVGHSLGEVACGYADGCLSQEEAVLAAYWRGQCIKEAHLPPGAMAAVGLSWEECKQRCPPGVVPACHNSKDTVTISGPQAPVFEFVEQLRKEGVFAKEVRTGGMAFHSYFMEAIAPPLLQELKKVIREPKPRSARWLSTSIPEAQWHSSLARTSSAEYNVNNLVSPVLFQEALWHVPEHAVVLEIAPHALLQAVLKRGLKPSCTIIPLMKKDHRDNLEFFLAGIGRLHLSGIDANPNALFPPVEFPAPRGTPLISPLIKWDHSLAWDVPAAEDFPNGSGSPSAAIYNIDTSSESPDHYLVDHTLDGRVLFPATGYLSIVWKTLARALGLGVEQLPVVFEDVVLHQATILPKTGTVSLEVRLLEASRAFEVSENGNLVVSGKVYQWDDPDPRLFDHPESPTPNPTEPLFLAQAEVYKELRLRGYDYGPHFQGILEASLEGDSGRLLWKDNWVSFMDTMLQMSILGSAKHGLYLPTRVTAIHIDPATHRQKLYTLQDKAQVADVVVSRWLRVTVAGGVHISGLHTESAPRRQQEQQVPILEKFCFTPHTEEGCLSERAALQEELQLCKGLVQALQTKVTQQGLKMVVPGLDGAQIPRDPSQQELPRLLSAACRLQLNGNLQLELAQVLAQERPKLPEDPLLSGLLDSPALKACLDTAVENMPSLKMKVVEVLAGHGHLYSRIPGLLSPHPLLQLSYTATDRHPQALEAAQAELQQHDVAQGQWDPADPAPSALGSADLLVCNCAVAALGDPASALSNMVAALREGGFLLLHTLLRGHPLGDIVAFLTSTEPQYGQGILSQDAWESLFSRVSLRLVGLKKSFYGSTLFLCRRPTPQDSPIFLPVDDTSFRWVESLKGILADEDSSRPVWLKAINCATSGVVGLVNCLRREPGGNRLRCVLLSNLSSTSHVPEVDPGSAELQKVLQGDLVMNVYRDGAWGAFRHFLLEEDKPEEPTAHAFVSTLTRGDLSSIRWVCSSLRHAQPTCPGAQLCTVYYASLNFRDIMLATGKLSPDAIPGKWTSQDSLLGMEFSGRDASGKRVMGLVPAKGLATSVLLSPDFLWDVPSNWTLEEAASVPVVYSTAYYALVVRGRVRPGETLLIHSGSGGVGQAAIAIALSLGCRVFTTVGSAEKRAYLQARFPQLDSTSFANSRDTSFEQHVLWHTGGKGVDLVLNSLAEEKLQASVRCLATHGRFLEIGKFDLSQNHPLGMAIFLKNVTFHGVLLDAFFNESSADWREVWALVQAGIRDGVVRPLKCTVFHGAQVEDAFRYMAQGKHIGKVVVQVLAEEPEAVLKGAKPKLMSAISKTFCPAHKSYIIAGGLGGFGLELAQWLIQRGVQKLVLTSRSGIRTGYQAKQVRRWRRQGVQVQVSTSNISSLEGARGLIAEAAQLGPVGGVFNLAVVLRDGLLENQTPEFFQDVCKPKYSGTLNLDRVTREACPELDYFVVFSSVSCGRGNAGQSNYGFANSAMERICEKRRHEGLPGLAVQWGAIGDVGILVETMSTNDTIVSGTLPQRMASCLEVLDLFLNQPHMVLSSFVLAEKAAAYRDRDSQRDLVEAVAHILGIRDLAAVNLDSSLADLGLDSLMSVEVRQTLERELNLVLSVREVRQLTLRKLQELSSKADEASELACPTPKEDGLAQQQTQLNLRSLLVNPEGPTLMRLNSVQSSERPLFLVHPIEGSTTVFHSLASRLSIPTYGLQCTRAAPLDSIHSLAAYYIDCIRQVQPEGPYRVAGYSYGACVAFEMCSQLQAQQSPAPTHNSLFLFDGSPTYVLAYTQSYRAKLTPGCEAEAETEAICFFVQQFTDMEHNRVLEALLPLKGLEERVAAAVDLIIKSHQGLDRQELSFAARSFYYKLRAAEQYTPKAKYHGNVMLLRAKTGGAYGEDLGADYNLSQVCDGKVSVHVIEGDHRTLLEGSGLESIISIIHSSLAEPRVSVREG

[4] = tested on: MCF-7 breast cancer cells; experiment: MTT cytotoxicity assay, MCF-7 breast cancer cells; format: cell-based, human; conditions: Homo sapiens, MCF7, MCF-7 cells, 48 h, read-out: IC50, growth inhibition, MCF-7
[5] = Weight loss in vivo (data not shown)
[6] = tested on: SK-Br3 breast cancer cells; experiment: MTT cytotoxicity assay, SK-Br3 breast cancer cells; format: cell-based, human; conditions: for IC50: MTT, 48 h, read-out: IC50, growth inhibition, SK-Br3
[7] = tested on: Non-malignant fibroblasts N-1; experiment: MTT cytotoxicity assay, non-malignant fibroblasts N-1; format: cell-based; conditions: for IC50: Fibroblast, non-malignant fibroblasts, MTT, 48 h, read-out: IC50, growth inhibition, Fibroblasts; for effect on non-malignant cells / normal fibroblasts: at concentrations similar to IC50; for effects in cell death / morphology changes in non-malignant cells: up to doses three-fold their cytotoxic IC50 value in tumoral cells

SMILES | induction of apoptosis (cleavage of PARP) [1] | 89 KDa product of PARP cleavage [1] | level of total HER2 [2] | expression levels of p-HER2 proteins [2] | levels of p-HER2 proteins [2] | active form of oncoprotein HER2 [2] | inhibition of FASN activity (in words) [3] | FASN activity, % of control cells [3] [%] | reduction of FASN activity ([3]; after 6 h of cell exposure) [%] | reduction of FASN activity ([3]; after 24 h of cell exposure) [%] | IC50 [4] [µM] | weight loss in vivo [5] | relative IC50 ratio of EGCG to compound [6] | IC50 ([6]; Homo sapiens, SK-BR-3, 48 h) [µM] | IC50 [6] [µM] | IC50 [7] [µM] | effect on non-malignant cells / normal fibroblasts [7] | effects in cell death / morphology changes in non-malignant cells [7]
O=C(Oc1cc(OC(=O)c2cc(O)c(O)c(O)c2)c2ccccc2c1)c1cc(O)c(O)c(O)c1 [f, 1,3-bis[(3,4,5-trihydroxybenzoyl)oxy]naphthalene] | induced apoptosis | marked increase | no significant change | markedly decreased | total decrease | marked decrease | inhibit FASN activity; also recorded: decreased in a time-dependent manner | 10±4 | 50 | 50 | 46.3 ± 18 | without inducing weight loss in vivo | 7.5 | 21.3 ± 6.7 | 20 | > 150 | not affected | No significant effects
O=C(Oc1ccc(OC(=O)c2cc(O)c(O)c(O)c2)c2ccccc12)c1cc(O)c(O)c(O)c1 [i, 1,4-bis[(3,4,5-trihydroxybenzoyl)oxy]naphthalene] | induced apoptosis | marked increase | no significant change | markedly decreased | total decrease | marked decrease | inhibit FASN activity; also recorded: decreased in a time-dependent manner | 31±16 | 50 | 50 | 44.4 ± 16.3 | without inducing weight loss in vivo | 5.4 | 28.7 ± 0.3 | 28 | > 150 | not affected | No significant effects
